Experimental data from paper PMC5564600 (Oncotarget, 2017).
Read-outs that look alike come from different tables or passages of the source.

Experiments:
Test in all cases: biochemical
Format in all cases: binding
panel of 442 kinases [1] = target: T1, panel of 442 kinases (Homo sapiens, UniProt Q6XUX3); details: kinase RIPK5; for remaining activity at 1 µM: read-out: RIPK5 (% of control at 1 µM)
T1 construct: purchased Ambit Biosciences (scanMAXX KINOMEscan)
T1 sequence (Q6XUX3 1-929): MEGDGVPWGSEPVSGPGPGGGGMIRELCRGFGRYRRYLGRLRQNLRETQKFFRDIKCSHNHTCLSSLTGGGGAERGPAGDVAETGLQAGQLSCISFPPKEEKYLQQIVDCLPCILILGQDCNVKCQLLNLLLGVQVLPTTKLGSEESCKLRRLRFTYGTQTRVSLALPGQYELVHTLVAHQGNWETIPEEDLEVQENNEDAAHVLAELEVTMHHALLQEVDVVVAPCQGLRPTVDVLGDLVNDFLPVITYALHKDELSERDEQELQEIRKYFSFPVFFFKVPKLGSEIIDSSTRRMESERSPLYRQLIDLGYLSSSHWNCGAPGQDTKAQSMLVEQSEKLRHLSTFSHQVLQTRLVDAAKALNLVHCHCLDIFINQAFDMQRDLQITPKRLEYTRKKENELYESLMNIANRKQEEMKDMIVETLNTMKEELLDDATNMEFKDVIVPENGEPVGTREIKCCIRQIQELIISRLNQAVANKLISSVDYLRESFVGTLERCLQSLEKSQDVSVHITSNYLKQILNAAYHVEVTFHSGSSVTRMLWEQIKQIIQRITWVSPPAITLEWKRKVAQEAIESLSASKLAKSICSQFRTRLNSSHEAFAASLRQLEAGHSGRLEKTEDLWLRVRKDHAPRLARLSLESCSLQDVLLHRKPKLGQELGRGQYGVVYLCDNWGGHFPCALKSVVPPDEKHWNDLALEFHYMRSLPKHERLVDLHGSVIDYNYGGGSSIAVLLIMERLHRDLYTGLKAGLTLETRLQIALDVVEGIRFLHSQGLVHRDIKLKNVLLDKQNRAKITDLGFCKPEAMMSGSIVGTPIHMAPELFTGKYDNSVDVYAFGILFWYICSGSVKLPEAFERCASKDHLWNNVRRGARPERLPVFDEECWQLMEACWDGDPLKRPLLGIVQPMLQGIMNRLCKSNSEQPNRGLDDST

panel of 442 kinases [2] = target: T2, panel of 442 kinases (Homo sapiens, UniProt O15146); details: kinase MUSK; for remaining activity at 1 µM: read-out: % of control at 1 µM
T2 construct: purchased Ambit Biosciences (scanMAXX KINOMEscan)
T2 sequence (O15146 24-869): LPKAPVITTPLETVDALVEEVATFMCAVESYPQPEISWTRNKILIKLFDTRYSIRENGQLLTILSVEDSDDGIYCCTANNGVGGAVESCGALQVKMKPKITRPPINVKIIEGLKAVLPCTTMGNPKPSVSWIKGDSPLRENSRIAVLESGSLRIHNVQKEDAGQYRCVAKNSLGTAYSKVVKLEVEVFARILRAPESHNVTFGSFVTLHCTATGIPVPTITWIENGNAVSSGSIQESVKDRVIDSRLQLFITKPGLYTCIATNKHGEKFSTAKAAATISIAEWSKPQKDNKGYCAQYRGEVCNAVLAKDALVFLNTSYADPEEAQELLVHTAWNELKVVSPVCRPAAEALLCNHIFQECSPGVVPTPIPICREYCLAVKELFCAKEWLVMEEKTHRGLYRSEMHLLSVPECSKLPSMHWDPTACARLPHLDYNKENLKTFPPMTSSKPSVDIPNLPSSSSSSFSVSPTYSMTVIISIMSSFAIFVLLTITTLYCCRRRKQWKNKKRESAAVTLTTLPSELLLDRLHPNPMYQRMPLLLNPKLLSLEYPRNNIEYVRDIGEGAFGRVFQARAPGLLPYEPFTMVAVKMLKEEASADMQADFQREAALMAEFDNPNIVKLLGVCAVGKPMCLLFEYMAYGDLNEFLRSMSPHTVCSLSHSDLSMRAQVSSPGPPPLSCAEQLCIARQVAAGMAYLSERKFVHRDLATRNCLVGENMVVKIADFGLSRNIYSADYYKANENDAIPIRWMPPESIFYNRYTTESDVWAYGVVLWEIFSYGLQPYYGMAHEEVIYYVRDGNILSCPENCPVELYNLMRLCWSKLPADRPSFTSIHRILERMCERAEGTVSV

panel of 442 kinases [3] = target: T3, panel of 442 kinases (Homo sapiens, UniProt P41743); details: kinase PRKCI; for remaining activity at 1 µM: read-out: PRKCI (% of control at 1 µM)
T3 construct: purchased Ambit Biosciences (scanMAXX KINOMEscan)
T3 sequence (P41743 1-596): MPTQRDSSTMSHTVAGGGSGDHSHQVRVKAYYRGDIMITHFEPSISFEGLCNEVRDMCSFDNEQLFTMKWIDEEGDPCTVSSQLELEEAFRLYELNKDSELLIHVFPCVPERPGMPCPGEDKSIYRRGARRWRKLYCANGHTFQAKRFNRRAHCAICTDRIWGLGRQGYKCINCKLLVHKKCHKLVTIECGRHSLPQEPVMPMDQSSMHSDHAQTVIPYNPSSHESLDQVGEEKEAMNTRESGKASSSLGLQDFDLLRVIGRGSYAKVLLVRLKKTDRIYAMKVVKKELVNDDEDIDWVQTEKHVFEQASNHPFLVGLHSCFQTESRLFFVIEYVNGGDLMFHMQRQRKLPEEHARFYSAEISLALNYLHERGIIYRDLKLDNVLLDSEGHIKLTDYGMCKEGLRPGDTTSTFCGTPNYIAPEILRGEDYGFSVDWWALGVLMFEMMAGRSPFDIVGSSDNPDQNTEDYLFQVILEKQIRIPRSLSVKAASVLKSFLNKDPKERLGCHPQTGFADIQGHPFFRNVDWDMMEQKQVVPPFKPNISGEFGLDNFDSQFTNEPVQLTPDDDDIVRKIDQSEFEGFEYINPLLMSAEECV

panel of 442 kinases [4] = target: T4, panel of 442 kinases (Homo sapiens, UniProt P00519, H396P); details: for remaining activity at 1 µM: read-out: % of control at 1 µM; for remaining activity at 10 µM: read-out: % of control at 10 µM
T4 construct: purchased Ambit Biosciences (scanMAXX KINOMEscan)

panel of 442 kinases [5] = target: T5, panel of 442 kinases (Homo sapiens, UniProt Q13164); details: ERK5; for remaining activity at 1 µM: read-out: % of control at 1 µM
T5 construct: purchased Ambit Biosciences (scanMAXX KINOMEscan)
T5 sequence (Q13164 whole entry): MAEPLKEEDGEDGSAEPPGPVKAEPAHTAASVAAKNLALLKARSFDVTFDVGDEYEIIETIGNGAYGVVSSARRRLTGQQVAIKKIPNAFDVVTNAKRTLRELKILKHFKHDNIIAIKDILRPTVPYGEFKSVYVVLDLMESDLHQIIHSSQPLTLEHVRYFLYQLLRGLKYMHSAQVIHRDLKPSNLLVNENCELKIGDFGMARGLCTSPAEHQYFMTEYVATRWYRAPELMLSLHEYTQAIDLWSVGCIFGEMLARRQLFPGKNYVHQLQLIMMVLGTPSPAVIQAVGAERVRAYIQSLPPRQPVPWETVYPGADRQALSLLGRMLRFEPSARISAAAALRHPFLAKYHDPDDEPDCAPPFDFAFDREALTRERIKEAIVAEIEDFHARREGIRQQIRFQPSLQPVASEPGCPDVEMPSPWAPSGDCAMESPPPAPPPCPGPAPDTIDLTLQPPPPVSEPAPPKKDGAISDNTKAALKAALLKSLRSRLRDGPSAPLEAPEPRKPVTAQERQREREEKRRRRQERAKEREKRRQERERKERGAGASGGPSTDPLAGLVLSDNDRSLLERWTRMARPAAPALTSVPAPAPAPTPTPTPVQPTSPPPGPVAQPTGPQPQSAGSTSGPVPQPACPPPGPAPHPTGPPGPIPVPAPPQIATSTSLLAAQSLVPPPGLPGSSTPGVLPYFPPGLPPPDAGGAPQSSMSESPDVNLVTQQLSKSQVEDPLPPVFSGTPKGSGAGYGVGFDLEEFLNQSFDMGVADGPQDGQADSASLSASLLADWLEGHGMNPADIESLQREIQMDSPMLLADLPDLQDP

[6] = 10 µM, read-out: % of control at 10 µM

SMILES	remaining activity at 1 µM (panel of 442 kinases [1])	remaining activity at 10 µM (panel of 442 kinases [1]; 10 µM, read-out: RIPK5 (% of control at 10 µM))	remaining activity at 1 µM (panel of 442 kinases [2])	remaining activity at 10 µM (panel of 442 kinases [2]; [6])	remaining activity at 1 µM (panel of 442 kinases [3])	remaining activity at 10 µM (panel of 442 kinases [3]; 10 µM, read-out: PRKCI (% of control at 10 µM))	remaining activity at 1 µM (panel of 442 kinases [4]; ABL1(H396P)-nonphosphorylated)	remaining activity at 10 µM (panel of 442 kinases [4]; ABL1(H396P)-nonphosphorylated)	remaining activity at 1 µM (panel of 442 kinases [4]; ABL1(H396P)-phosphorylated)	remaining activity at 10 µM (panel of 442 kinases [4]; ABL1(H396P)-phosphorylated)	remaining activity at 1 µM (panel of 442 kinases [5])	remaining activity at 10 µM (panel of 442 kinases [5]; [6])
Nc1cc(C(F)(F)F)c(-c2cc(N3CCOCC3)nc(N3CCOCC3)n2)cn1 [Buparlisib]	100%	89%	86%	55%	90%	100%	99%	100%	96%	100%	84%	100%
COc1ncc(-c2ccc3nccc(-c4ccnnc4)c3c2)cc1NS(=O)(=O)c1ccc(F)cc1F [Omipalisib]	100%		100%		100%		100%		100%		87%	
FC(F)c1nc2ccccc2n1-c1nc(N2CCOCC2)nc(N2CCOCC2)n1 [ZSTK474, 2-(difluoromethyl)-1-[4,6-di(4-morpholinyl)-1,3,5-triazin-2-yl]-1H-benzimidazole]	92%		100%		100%		100%		100%		97%	
Cn1c(=O)n(-c2ccc(C(C)(C)C#N)cc2)c2c3cc(-c4cnc5ccccc5c4)ccc3ncc21 [Dactolisib, 2-methyl-2-[4-(3-methyl-2-oxo-8-quinolin-3-yl-2,3-dihydroimidazo[4,5-c]quinolin-1-yl)-phenyl] propionitrile]	80%		100%		86%		70%		79%			
